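Following 48 hours of exposure in 96-well plates, responses at five concentrations were used to interpolate endpoints linearly. TGI marks complete inhibition of growth.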

What all share (test): NCI-60 cell line screen, 48 h
Assay [1] has as its system MDA-MB-231 breast.
The test system of assay [2] is HS 578T breast.
Assay [3] deals with M14 melanoma.
For assay [4], the system named is NCI-H522 lung.
Assay [5] deals with HOP-62 NSCLC.
Assay [6] deals with MDA-MB-435.
Assay [7] deals with MDA-N.
Assay [8] deals with OVCAR-3 ovarian.
Assay [9] concerns KM12 colon.

Turning to `CC(=O)c1c(C(F)(F)F)n([O-])c2cc(Cl)c(Cl)cc2[n+]1=O`, the TGI in [1] was determined as 2.99 µM; in assay [2], 2.38 µM; in [3], 2.61 µM; in assay [4] it was 0.368 µM; in [5], 0.887 µM; in [6] it was 2.67 µM. Besides, the TGI in assay [7] was 2.41 µM; in [8], 3.19 µM; in [9] it was 0.403 µM.

Regarding `COc1ccc2nc3cc([N+](=O)[O-])ccc3c(Nc3ccc(S(=O)(=O)NC(C)=O)cc3)c2c1`, the TGI in assay [1], in assay [2], in [3], in [4], in assay [5] and in [6] was more than 100 µM each time. Also, the TGI in assay [7] and in assay [8] was more than 100 µM in each case.

With `O=c1[nH]nc(-c2ccccc2)n1/N=C/c1cccnc1`, the TGI in [1], in assay [2], in assay [3], in assay [4], in assay [5] and in [6] was more than 100 µM in each case. Also, the TGI in assay [7], in assay [8] and in assay [9] was more than 100 µM in each case.

`C=C(C)C(O)C(O)c1c(OC)ccc2ccc(=O)oc12` (centres undefined): the TGI in assay [1], in assay [2], in assay [3], in [4], in [5] and in assay [6] was more than 100 µM throughout. Further, the TGI in assay [7], in assay [8] and in assay [9] was more than 100 µM each time.

Regarding `O=C1/C(=N\S(=O)(=O)c2ccccc2)C([n+]2ccc(Cc3ccccc3)cc2)=C([O-])c2ccccc21`, the TGI is 9.89 µM in assay [1]; 6.09 µM in [2]; 2.68 µM in assay [3]; 2.11 µM in assay [4]; 3.27 µM in [5]; 0.377 µM in [6]. The TGI in assay [7] is 0.346 µM; in [8], 2.2 µM; in [9], 4.7 µM.

For the compound `CC1(C)[C@H]2CC[C@]1(C)[C@H](OC(=O)NNC(=O)O[C@@H]1C[C@@H]3CC[C@@]1(C)C3(C)C)C2`, the TGI in assay [1] came out at 27.6 µM; in assay [2], 36.6 µM; in assay [3], 35.6 µM; in assay [4] it was 30.7 µM; in [5], 29.5 µM; in assay [6], 64.4 µM. Moreover, the TGI in [7] came to 24.8 µM; in assay [8] it was 25.6 µM; in assay [9] it was 37.3 µM.

`CCCCCCCCCCCCCCCCCCNc1ccn(C2OC(COP(=O)(O)OCC3OC(n4cc(F)c(NCCCCCCCCCCCCCCCCCC)nc4=O)CC3O)C(O)C2O)c(=O)n1` (centres undefined): the TGI in assay [1], in [2], in [3], in assay [4], in assay [5] and in assay [6] was more than 100 µM throughout. The TGI in assay [7], in [8] and in assay [9] was more than 100 µM in each case.

Take `COc1c(O)cc(O)c2c(=O)cc(-c3ccccc3)oc12`: the TGI is more than 100 µM in assay [1]; more than 100 µM in assay [2]; more than 100 µM in assay [3]; more than 100 µM in [4]; 49.8 µM in [5]; more than 100 µM in assay [6]. Further, the TGI in assay [7] is more than 100 µM; in [8] it was 72.5 µM; in [9], more than 100 µM.

Regarding `CSC1=N/C(=C\c2ccco2)C(=O)N1CN1CCOCC1`, the TGI in assay [1], in assay [2], in assay [3], in assay [4], in assay [5] and in assay [6] was more than 100 µM in each case. For the same compound, the TGI in [7], in [8] and in assay [9] was more than 100 µM throughout.

On to `O=C(Nc1ccccc1)N(CCCCN(Cc1ccccc1)C(=O)Nc1ccccc1)Cc1ccccc1`, for which the TGI in assay [1], in assay [2], in [3], in [4], in [5] and in [6] was more than 100 µM throughout. Besides, the TGI in assay [7], in assay [8] and in assay [9] was more than 100 µM in each case.

As for `O=c1cc(N2CCN(c3cc(=O)n4ccccc4n3)CC2)oc2ccccc12`, the TGI in assay [1] was more than 100 µM; in [2], more than 80.2 µM; in assay [3], more than 100 µM; in assay [4], more than 100 µM; in assay [6], more than 100 µM; in assay [7] it was more than 100 µM. The TGI in assay [8] was more than 100 µM; in assay [9] it was more than 68.5 µM.

For `C#CCSC(C=C=C)P(=O)(OC(C)C)OC(C)C` (centres undefined), the TGI in [1] was more than 100 µM; in assay [2] it was 44.1 µM; in [3], more than 100 µM; in [4], 83.6 µM; in [5] it was more than 100 µM; in assay [6] it was more than 100 µM. The TGI in assay [7], in assay [8] and in assay [9] was more than 100 µM throughout.

`CN1CCN(CCCBr)CC1`: the TGI in [1], in [2], in [3], in assay [4], in assay [5] and in assay [6] was more than 100 µM each time. The TGI in assay [7], in assay [8] and in assay [9] was more than 100 µM throughout.

For the compound `COc1ccc(C(SC2C(O)C(CO)OC2n2ccc(N)nc2=O)(c2ccccc2)c2ccc(OC)cc2)cc1` (centres undefined), the TGI turned out to be 30.8 µM in assay [1]; 48.1 µM in assay [2]; 27.9 µM in assay [3]; 31.2 µM in assay [4]; 40.5 µM in assay [5]; 28.2 µM in assay [6]. The TGI was determined as 24.2 µM in assay [7], 48.5 µM in [8] and 71.2 µM in [9].

For the compound `CCOC(=O)c1c(N2CCCC2)ncn(Cc2ccccc2)c1=S`, the TGI in assay [1], in assay [2], in assay [3], in [4], in assay [5] and in [6] was more than 100 µM throughout. The TGI in assay [7], in [8] and in [9] was more than 100 µM throughout.

On to `O=c1oc2ccccc2cc1-c1cn2cc(Cl)ccc2n1`, for which the TGI in assay [1] is 23.1 µM; in assay [2], 8.19 µM; in assay [3] it was 15.2 µM; in assay [4], 0.722 µM; in assay [5] it was 6.22 µM; in assay [6], 0.138 µM. In addition, the TGI in assay [7] is 0.428 µM; in assay [8], 2.51 µM; in [9], 12.1 µM.

`CSc1n[nH]c(N)c1C(=O)Nc1ccc(C)cc1`: the TGI in assay [1], in [2], in [3], in assay [4], in assay [5] and in assay [6] was more than 100 µM each time. For the same compound, the TGI in assay [7] and in [8] was more than 100 µM throughout.

`COC(=O)c1c(OC(C)=O)ccc2c1c1c(n2C)C(=O)c2ccccc2C1=O`: the TGI in [1] is more than 100 µM; in assay [2], 39.1 µM; in [3], more than 100 µM; in [4], 67.6 µM; in assay [5] it was 67.4 µM; in [6], more than 100 µM. In addition, the TGI in assay [7] is more than 100 µM; in assay [8] it was 63 µM; in assay [9], 86.4 µM.

Turning to `c1ccc2c(c1)CCc1c-2n(CCN2CCOCC2)c2ccccc12`, the TGI in assay [1] was more than 100 µM; in [2], more than 100 µM; in [3] it was more than 100 µM; in assay [4] it was 28.6 µM; in assay [5], more than 100 µM; in assay [6], more than 100 µM. In addition, the TGI is more than 100 µM in [7], more than 100 µM in assay [8] and 27.3 µM in [9].

For `CCOC(=O)c1cc2c(C(=O)c3ccc([N+](=O)[O-])cc3)c(C(C)=O)ccc2[nH]1`, the TGI in assay [1] was 53.4 µM; in assay [2] it was 50.1 µM; in assay [3], more than 100 µM; in assay [4] it was 36.5 µM; in assay [5], 18.4 µM; in assay [6] it was more than 100 µM. Also, the TGI in [7], in assay [8] and in assay [9] was more than 100 µM each time.

With `O=C(Nc1nc2ccccc2s1)c1cc([N+](=O)[O-])ccc1Cl`, the TGI is more than 100 µM in assay [1]; 15.7 µM in [2]; more than 47.8 µM in [3]; 11.6 µM in assay [4]; more than 100 µM in assay [5]; more than 100 µM in [6]. Further, the TGI in [7] is more than 31.6 µM; in [8] it was more than 82.5 µM; in [9] it was more than 48.1 µM.

Take `O=C1c2cc3c(cc2CC12Cc1ccc4c(c1C2=O)CCCC4)CCCC3` (centres undefined): the TGI in assay [1], in assay [2], in assay [3], in assay [4], in [5] and in [6] was more than 100 µM each time. In addition, the TGI in assay [7] and in assay [8] was more than 100 µM each time.
